Measurements reported in ChEMBL document CHEMBL5678809, “Preclinical characterization of GLPG0634, a selective inhibitor of JAK1, for the treatment of inflammatory diseases” (J Immunol, 2013).
The source made the active and inactive calls. The calls are words filed in the database; no cut-off is given here.

What was measured:
[1] = molecular target: Death-associated protein kinase 1 (Homo sapiens, UniProt P53355); test: Inhibition of DAPK1 (unknown origin)
[2] = Cmax in CD-1 mouse at 5 mg/kg, po measured upto 24 hrs by LC-MS analysis; assay type: ADME, organism-based; settings: in vivo
[3] = molecular target: LIM domain kinase 1 (Homo sapiens) (UniProt P53667); test: Inhibition of LIMK1 (unknown origin) at 1 uM relative to control
[4] = molecular target: Serine/threonine-protein kinase SIK1 (Homo sapiens) (UniProt P57059); test: Inhibition of SIK (unknown origin) at 1 uM relative to control
Mus musculus [5] = test: Antiarthritic activity against collagen-induced arthritis DBA/1J mouse model assessed as reduction in TNFalpha expression at 50 mg/kg, po measured for 4 hrs; assay type: functional, organism-based
[6] = Volume of distribution at steady state in CD-1 mouse at 1 mg/kg, iv measured upto 8 hrs by LC-MS analysis; assay type: ADME, organism-based; settings: in vivo, read-out: Vdss
[7] = molecular target: CDK7/Cyclin H/MNAT1 (Homo sapiens) (UniProt P51946+P50613+P51948); test: Inhibition of CDK7/cyclinH/MAT1 (unknown origin) at 1 uM relative to control; assay type: protein-complex assay
Homo sapiens = species on record: Homo sapiens; test: Inhibition of PKB (unknown origin) at 1 uM relative to control
[8] = molecular target: Mitogen-activated protein kinase 12 (Homo sapiens, UniProt P53778); test: Inhibition of MAPK12 (unknown origin)
[9] = molecular target: Testis-specific serine/threonine-protein kinase 1 (Homo sapiens) (UniProt Q9BXA7); test: Inhibition of TSSK1 (unknown origin) at 1 uM relative to control
[10] = molecular target: Myotonin-protein kinase (Homo sapiens) (UniProt Q09013); test: Inhibition of DMPK (unknown origin) at 1 uM relative to control
[11] = molecular target: Serine/threonine-protein kinase TAO1 (Homo sapiens) (UniProt Q7L7X3); test: Inhibition of TAO1 (unknown origin) at 1 uM relative to control
[12] = Cmax in CD-1 mouse at 1 mg/kg, iv measured upto 8 hrs by LC-MS analysis; assay type: ADME, organism-based; settings: in vivo
[13] = Half life in CD-1 mouse at 5 mg/kg, po measured upto 24 hrs by LC-MS analysis; assay type: ADME, organism-based; settings: in vivo
[14] = molecular target: Homeodomain-interacting protein kinase 1 (Homo sapiens) (UniProt Q86Z02); test: Inhibition of HIPK1 (unknown origin) at 1 uM relative to control
[15] = molecular target: Serine/threonine-protein kinase 3 (Homo sapiens) (UniProt Q13188); test: Inhibition of MST2 (unknown origin) at 1 uM relative to control
Mus musculus [16] = test: Antiarthritic activity against collagen-induced arthritis DBA/1J mouse model assessed as reduction in MX1 level in whole blood at 50 mg/kg, po measured for 2 weeks by luminex analysis; assay type: functional, organism-based
[17] = molecular target: Mitogen-activated protein kinase kinase kinase 9 (Homo sapiens) (UniProt P80192); test: Inhibition of MLK1 (unknown origin) at 1 uM relative to control
Mus musculus [18] = test: Antiarthritic activity against collagen-induced arthritis DBA/1J mouse model assessed as MIP-1beta level in serum at 50 mg/kg, po measured for 4 hrs by luminex analysis (reference value: 203.4= +/- 20.8 ng/ml); assay type: functional
[19] = molecular target: Ribosomal protein S6 kinase alpha-5 (Homo sapiens) (UniProt O75582); test: Inhibition of MSK1 (unknown origin) at 1 uM relative to control
Rattus norvegicus [20] = test: Antiarthritic activity against collagen-induced arthritis Dark Agouti rat model assessed as reduction in clinical score at 0.1 mg/kg, po measured after day 5; assay type: functional, organism-based; settings: time 5.0 day
[21] = molecular target: SRSF protein kinase 2 (Homo sapiens) (UniProt P78362); test: Inhibition of SRPK2 (unknown origin) at 1 uM relative to control
[22] = molecular target: Proto-oncogene tyrosine-protein kinase receptor Ret (Homo sapiens) (UniProt P07949); test: Inhibition of Ret (unknown origin) at 1 uM relative to control
[23] = molecular target: Tyrosine-protein kinase CSK (Homo sapiens) (UniProt P41240); test: Inhibition of CSK (unknown origin) at 1 uM relative to control
[24] = molecular target: Protein kinase C beta type (Homo sapiens) (UniProt P05771); test: Inhibition of PKCb (unknown origin) at 1 uM relative to control
[25] = molecular target: Ribosomal protein S6 kinase beta-2 (Homo sapiens) (UniProt Q9UBS0); test: Inhibition of p70S6K2 (unknown origin) at 1 uM relative to control
Ephrin type-A receptor 5 = Ephrin type-A receptor 5 (Homo sapiens, UniProt P54756); test: Inhibition of EPHA5 (unknown origin)
[26] = molecular target: Serine/threonine-protein kinase TBK1 (Homo sapiens, UniProt Q9UHD2); test: Inhibition of TBK1 (unknown origin)
[27] = molecular target: Serine/threonine-protein kinase N2 (Homo sapiens) (UniProt Q16513); test: Inhibition of PRK2 (unknown origin) at 1 uM relative to control
[28] = AUC (0 to 24 hrs) in Sprague-Dawley rat at 5 mg/kg, po measured upto 24 hrs by LC-MS analysis; assay type: ADME, organism-based; settings: in vivo
Rattus norvegicus [29] = test: Antiarthritic activity against collagen-induced arthritis Dark Agouti rat model assessed as reduction in inflammatory infiltration at 1 mg/kg, po administered 3 times a week and measured on day 7; assay type: functional, organism-based; settings: time 7.0 day
[30] = molecular target: Tyrosine-protein kinase TXK (Homo sapiens) (UniProt P42681); test: Inhibition of Txk (unknown origin) at 1 uM relative to control
[31] = molecular target: Serine/threonine-protein kinase mTOR (Homo sapiens) (UniProt P42345); test: Inhibition of mTOR (unknown origin) at 1 uM relative to control
Mus musculus [32] = test: Antiarthritic activity against collagen-induced arthritis DBA/1J mouse model assessed as reduction in MMP3 expression at 50 mg/kg, po measured for 4 hrs; assay type: functional, organism-based
BaF3 = test: Antiproliferative activity against mouse BaF3 cells assessed as IL-3-induced inhibition of cell growth incubated for 40 hrs; assay type: functional, cell-based; settings: BaF3, 40 h
[33] = molecular target: Mast/stem cell growth factor receptor Kit (Homo sapiens, UniProt P10721); test: Inhibition of cKIT (unknown origin)
[34] = molecular target: Serine/threonine-protein kinase PLK2 (Homo sapiens) (UniProt Q9NYY3); test: Inhibition of Snk (unknown origin) at 1 uM relative to control
[35] = molecular target: Serine/threonine-protein kinase Sgk1 (Homo sapiens) (UniProt O00141); test: Inhibition of SGK (unknown origin) at 1 uM relative to control
Mus musculus [36] = test: Antiarthritic activity against collagen-induced arthritis DBA/1J mouse model assessed as reduction in XCL1 level in serum at 50 mg/kg, po measured for 4 hrs by luminex analysis; assay type: functional, organism-based
[37] = molecular target: NUAK family SNF1-like kinase 1 (Homo sapiens) (UniProt O60285); test: Inhibition of ARK5 (unknown origin) at 1 uM relative to control
[38] = molecular target: Mitogen-activated protein kinase 11 (Homo sapiens) (UniProt Q15759); test: Inhibition of SAPK2b (unknown origin) at 1 uM relative to control

Protein kinase C beta type (Homo sapiens), sequence (P05771 2-671 limits assumed): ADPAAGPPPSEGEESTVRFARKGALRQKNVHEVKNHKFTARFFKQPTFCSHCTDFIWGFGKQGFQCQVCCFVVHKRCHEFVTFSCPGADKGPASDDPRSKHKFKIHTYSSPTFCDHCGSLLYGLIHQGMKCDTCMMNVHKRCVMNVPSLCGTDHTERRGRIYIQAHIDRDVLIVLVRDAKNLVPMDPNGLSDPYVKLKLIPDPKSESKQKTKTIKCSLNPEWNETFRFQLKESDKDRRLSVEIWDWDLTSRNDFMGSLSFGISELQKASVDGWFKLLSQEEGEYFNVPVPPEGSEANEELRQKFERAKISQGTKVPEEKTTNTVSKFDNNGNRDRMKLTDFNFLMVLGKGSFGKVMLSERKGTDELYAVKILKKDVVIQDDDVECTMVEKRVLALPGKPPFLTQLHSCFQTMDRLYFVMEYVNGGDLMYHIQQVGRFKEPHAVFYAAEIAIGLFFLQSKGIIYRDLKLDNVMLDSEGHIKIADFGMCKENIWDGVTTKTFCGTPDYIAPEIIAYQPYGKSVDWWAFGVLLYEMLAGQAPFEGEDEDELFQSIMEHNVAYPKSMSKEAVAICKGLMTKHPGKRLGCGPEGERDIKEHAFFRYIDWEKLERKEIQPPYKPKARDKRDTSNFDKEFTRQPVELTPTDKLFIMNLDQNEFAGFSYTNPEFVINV
Mitogen-activated protein kinase 12, sequence (P53778 whole entry): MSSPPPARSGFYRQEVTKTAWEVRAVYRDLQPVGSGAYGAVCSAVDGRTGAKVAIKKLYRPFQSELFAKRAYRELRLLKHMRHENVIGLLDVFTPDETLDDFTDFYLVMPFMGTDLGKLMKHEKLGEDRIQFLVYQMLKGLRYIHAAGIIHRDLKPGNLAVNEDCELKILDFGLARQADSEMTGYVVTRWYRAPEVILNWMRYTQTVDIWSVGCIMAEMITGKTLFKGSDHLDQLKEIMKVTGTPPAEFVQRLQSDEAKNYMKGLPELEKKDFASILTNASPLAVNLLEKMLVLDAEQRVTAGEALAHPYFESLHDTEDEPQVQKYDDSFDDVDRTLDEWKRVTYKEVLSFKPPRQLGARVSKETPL
Serine/threonine-protein kinase 3 (Homo sapiens), sequence (Q13188 whole entry): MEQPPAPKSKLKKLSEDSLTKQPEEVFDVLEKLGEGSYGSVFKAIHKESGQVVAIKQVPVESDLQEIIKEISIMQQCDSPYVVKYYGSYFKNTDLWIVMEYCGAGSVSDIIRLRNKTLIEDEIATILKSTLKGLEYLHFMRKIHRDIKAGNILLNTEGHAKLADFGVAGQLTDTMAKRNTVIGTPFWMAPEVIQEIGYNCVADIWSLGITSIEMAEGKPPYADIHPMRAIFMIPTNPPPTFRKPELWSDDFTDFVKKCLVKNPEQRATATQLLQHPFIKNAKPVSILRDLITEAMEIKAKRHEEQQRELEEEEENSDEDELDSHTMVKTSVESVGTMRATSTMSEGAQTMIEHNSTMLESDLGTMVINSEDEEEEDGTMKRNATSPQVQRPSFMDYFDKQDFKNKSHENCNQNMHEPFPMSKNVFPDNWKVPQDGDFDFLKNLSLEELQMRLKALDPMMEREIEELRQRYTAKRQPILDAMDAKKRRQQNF
Ribosomal protein S6 kinase alpha-5 (Homo sapiens), sequence (O75582 whole entry, looked up): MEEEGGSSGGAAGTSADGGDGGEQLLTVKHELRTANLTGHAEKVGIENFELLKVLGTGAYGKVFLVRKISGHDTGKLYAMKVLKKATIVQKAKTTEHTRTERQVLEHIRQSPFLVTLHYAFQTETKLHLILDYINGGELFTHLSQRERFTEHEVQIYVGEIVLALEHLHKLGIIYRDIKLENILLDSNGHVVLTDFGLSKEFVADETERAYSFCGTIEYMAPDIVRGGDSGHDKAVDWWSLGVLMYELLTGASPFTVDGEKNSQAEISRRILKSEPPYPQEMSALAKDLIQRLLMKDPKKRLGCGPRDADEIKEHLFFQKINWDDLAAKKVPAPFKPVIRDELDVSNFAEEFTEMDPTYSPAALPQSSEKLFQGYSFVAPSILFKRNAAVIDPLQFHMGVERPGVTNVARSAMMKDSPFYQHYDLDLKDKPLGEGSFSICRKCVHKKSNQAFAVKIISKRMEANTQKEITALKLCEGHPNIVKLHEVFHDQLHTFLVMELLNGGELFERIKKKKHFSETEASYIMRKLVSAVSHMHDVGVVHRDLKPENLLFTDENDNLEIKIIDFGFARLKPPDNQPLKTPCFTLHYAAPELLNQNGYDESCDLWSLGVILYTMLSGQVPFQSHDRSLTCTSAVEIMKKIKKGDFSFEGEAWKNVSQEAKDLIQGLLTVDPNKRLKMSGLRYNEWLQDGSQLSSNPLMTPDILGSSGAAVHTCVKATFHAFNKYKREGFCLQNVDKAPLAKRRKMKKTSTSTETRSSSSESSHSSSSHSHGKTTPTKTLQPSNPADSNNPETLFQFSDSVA
Serine/threonine-protein kinase SIK1 (Homo sapiens), sequence (P57059 whole entry): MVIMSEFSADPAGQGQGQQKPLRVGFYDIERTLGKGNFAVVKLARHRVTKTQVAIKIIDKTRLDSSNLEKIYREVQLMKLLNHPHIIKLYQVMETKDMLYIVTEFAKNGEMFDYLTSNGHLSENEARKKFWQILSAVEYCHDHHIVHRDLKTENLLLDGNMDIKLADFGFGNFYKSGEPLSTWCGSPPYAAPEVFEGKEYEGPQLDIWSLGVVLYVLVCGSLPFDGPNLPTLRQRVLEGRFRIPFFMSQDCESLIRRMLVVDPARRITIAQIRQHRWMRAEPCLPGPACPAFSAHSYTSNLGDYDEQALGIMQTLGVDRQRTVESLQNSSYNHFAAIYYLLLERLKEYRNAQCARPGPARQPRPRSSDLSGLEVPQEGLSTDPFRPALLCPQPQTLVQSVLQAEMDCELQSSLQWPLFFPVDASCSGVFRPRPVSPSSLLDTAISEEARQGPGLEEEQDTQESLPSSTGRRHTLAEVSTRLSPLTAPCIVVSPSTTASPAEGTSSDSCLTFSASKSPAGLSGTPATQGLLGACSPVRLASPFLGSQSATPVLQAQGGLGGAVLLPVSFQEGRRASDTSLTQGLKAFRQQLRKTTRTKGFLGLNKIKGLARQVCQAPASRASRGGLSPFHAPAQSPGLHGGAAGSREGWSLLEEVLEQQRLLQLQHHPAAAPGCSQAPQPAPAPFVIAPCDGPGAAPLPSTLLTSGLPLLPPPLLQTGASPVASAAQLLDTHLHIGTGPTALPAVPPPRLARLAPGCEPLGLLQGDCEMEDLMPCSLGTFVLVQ
Tyrosine-protein kinase TXK (Homo sapiens), sequence (P42681 whole entry): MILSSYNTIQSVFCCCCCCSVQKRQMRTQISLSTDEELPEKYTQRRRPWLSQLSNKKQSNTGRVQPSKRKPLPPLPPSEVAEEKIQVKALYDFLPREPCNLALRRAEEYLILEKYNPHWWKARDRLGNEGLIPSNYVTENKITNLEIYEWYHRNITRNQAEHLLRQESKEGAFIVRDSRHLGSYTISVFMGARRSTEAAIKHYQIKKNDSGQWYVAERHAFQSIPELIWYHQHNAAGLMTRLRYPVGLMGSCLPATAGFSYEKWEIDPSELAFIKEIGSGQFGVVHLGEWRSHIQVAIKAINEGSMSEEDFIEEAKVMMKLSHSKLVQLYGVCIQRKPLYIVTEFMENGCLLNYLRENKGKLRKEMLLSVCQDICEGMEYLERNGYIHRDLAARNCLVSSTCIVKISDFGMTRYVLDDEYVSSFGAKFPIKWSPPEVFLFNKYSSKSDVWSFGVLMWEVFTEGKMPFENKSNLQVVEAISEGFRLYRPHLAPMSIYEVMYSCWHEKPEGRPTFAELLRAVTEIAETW
Serine/threonine-protein kinase PLK2 (Homo sapiens), sequence (Q9NYY3 whole entry, looked up): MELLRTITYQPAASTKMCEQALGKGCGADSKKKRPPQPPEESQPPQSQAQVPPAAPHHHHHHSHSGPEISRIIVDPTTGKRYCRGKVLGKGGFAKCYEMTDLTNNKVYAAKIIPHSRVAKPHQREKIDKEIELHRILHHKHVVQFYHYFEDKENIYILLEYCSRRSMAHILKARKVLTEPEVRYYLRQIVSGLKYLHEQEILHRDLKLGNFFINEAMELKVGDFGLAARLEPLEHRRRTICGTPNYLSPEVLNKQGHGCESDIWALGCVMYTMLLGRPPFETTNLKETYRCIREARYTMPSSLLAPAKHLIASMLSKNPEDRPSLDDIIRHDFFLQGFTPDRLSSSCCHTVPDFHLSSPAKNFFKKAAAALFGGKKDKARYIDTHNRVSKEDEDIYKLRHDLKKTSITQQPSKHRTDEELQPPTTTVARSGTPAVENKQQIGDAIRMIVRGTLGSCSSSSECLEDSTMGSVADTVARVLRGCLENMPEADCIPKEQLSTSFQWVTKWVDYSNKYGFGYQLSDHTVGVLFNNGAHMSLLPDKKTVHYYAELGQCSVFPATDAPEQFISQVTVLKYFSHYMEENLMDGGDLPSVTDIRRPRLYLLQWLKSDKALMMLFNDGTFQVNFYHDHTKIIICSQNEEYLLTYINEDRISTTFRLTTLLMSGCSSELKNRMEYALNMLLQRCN
Tyrosine-protein kinase CSK (Homo sapiens), sequence (P41240 2-450 limits assumed): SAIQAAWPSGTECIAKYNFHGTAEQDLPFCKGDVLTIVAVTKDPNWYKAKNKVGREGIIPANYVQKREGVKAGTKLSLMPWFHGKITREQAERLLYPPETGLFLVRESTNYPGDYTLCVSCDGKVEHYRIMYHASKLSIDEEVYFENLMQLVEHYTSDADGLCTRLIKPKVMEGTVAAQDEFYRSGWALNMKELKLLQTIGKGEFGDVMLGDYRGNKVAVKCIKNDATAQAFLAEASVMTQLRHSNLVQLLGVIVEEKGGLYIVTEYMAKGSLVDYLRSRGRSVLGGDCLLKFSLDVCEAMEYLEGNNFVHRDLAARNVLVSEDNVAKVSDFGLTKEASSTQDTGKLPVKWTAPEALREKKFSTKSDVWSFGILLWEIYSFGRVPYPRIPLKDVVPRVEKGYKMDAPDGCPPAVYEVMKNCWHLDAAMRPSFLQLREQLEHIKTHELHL

**Q.** Which results are given for `O=C(Nc1nc2cccc(-c3ccc(CN4CCS(=O)(=O)CC4)cc3)n2n1)C1CC1` [FILGOTINIB]?
**A.** IC50 [1]: > 10 µM; Cmax [2]: 920 ng/mL; inhibition [3]: -1%; inhibition [4]: 1%; Activity (Mus musculus [5]): Active; Vd [6]: 6 L/kg; inhibition [7]: 12%; inhibition (Homo sapiens): -3%; IC50 [8]: > 10 µM; inhibition [9]: 5%; inhibition [10]: -4%; inhibition [11]: -4%; Cmax [12]: 637 ng/mL; half-life [13]: 1.7 h; inhibition [14]: -8%; inhibition [15]: -10%; Activity (Mus musculus [16]): inactive; inhibition [17]: 1%; Activity (Mus musculus [18]): 143 ng/mL; inhibition [19]: -1%; Activity (Rattus norvegicus [20]): Active; inhibition [21]: -10%; inhibition [22]: 9%; inhibition [23]: 3%; inhibition [24]: -2%; inhibition [25]: -6%; IC50 (Ephrin type-A receptor 5): > 10 µM; IC50 [26]: 1.79 µM; inhibition [27]: -8%; AUC [28]: 1680 ng·h/mL; Activity (Rattus norvegicus [29]): Active; inhibition [30]: 14%; inhibition [31]: -7%; Activity (Mus musculus [32]): Active; IC50 (BaF3; read-out: IC50): 4.55 µM; IC50 (BaF3; read-out: pIC50 (converted)): 4.57 µM; IC50 [33]: > 10 µM; inhibition [34]: 0%; inhibition [35]: 7%; Activity (Mus musculus [36]): Active; inhibition [37]: 1%; inhibition [38]: -4%
